Source: publication PMC11116330, “The evolutionary novelty of insect defensins: from bacterial killing to toxin neutralization” (Cellular and Molecular Life Sciences: CMLS, 2024)
Read-outs that look alike come from different tables or passages of the source. Positions of bridges follow the written chain, without caps; N, C: chain ends. Residues, ends and D or L forms follow the SMILES beside them.

Legend:
[1] = Variable temperature CD spectroscopy; format: physicochemical; conditions: 10 to 65 °C, oxidized product, 5 mM PB pH 7.0
Procedure: For CD analysis, a peptide sample was dissolved in 5 mM phosphate buffer (PB, pH7.0) with a concentration of 0.1–0.2 mg/mL. CD spectra were measured on the Chirascan Plus spectropolarimeter v.4.4.0 (Applied Photophysics Ltd, UK) by using a quartz cell of 1.0 mm thickness. The wavelengths used ranged from 190 to 260 nm. Data were collected at 1 nm intervals with a scan rate of 0.5 s per point and expressed as delta epsilon (cm^-1M^-1). Delta epsilon was calculated as [θ×(MRW×0.1)/(C×L)/3298], where θ is the ellipticity (in millidegrees), C is the concentration (in mg/mL), L is the path length (in cm), and MRW is the mean residue weight (in Da).
Fig. 4 Experiment data-guided structural model of DvirARP built by comparative modelling. (A) Comparison of CD spectra of reduced and oxidized DvirARP in 5 mM PB buffer (pH7.0). Signature bands for the presence of cation–π and 3_10-helix are denoted by arrows. (B) Thermal denaturation curves of the oxidized product at indicated temperatures. (C) Sequence comparison between DvirARP and the template MSL2 CXC (residues 542–559). Identical and conserved residues are shadowed in yellow and grey, respectively. Residues involved in cation–π interactions are underlined twice. The predicted secondary structure element and disulfide bridges are extracted from the experiment-based computational model. […] (E) The cation–π interaction on the DvirARP structure. […]

[2] = tested on: S15 DNA (15-bp fragment derived from the MRE motif CES11D1); test: Electrophoretic mobility shift assay (EMSA); format: binding; conditions: 5 µM annealed double strand S15, DvirARP 2, 4 or 8 µM, room temperature 20 min, 6% native polyacrylamide, ethidium bromide staining
[3] = tested on: Methicillin-sensitive Staphylococcus aureus (MSSA) CGMCC 1.89; test: Inhibition-zone antimicrobial assay; format: cell-based; conditions: 1 nmol/well
[4] = tested on: Bacillus megaterium CGMCC 1.0459
[5] = tested on: Micrococcus luteus CGMCC 1.0290

## CC[C@H](C)[C@H](NC(=O)[C@H](C)NC(=O)[C@H](CC(N)=O)NC(=O)[C@H](CCCNC(=N)N)NC(=O)[C@H](C)NC(=O)[C@H](CCCNC(=N)N)NC(=O)[C@H](CCCNC(=N)N)NC(=O)[C@H](Cc1ccc(O)cc1)NC(=O)[C@@H]1CSSC[C@H](NC(=O)[C@@H](NC(=O)[C@H](C)N)C(C)C)C(=O)N[C@@H](CCCNC(=N)N)C(=O)N1)C(=O)N[C@H](C(=O)N[C@H]1CSSC[C@@H](C(=O)N[C@@H](CCCNC(=N)N)C(=O)O)NC(=O)[C@H](Cc2ccc(O)cc2)NC1=O)C(C)C [DvirARP] (H-AVCRCYRRARNAIVCYCR-OH; disulfide 3-5, 15-17; N-terminus and C-terminus assumed)
[1]
  CD signature band around 230 nm (cation–π interaction) with temperature: decreased with the temperature increase
  CD signature band at 206 nm (3_10-helix) with temperature: overall retained
[2]
  Binding of S15 DNA fragment (EMSA): not able to bind
[3]; peptide dissolved in 50% haemolymph serum from DvWT female adults
  Antibacterial activity in inhibition zone assay against S. aureus CGMCC 1.89: no detectable antibacterial activity
[3]; peptide dissolved in 50% haemolymph serum from DvdelARP female adults
  Antibacterial activity in inhibition zone assay against S. aureus CGMCC 1.89: no detectable antibacterial activity
[3]; peptide dissolved in insect saline (pH 7.2)
  Antibacterial activity in inhibition zone assay against S. aureus CGMCC 1.89: no detectable antibacterial activity
[4]; Bacillus CGMCC 1.0459, pH 7
  Lethal concentration CL: 17.68 µM
[4]; inhibition-zone assay, 0.8% agar, 2 µL peptide per 2-mm well, peptide in 5 mM PB pH 7.0, overnight, Bacillus megaterium CGMCC 1.0459
  Lethal concentration CL: > 10 µM
[5]; CGMCC 1.0290, pH 7
  Lethal concentration CL: 10.77 µM
[5]; inhibition-zone assay, 0.8% agar, 2 µL peptide per 2-mm well, peptide in 5 mM PB pH 7.0, overnight, Micrococcus luteus CGMCC 1.0290
  Lethal concentration CL: > 10 µM
